Reference: patent US20180244611A1, “Modulators of the Cystic Fibrosis Transmembrane Conductance Regulator Protein and Methods of Use” (AbbVie S.à.r.l., priority 2017, published 2018)

Legend:
F508delCFTR [1] = target: T1, F508delCFTR (Homo sapiens, UniProt P13569, DEL508-508); assay: Cell Surface Expression-Horse Radish Peroxidase (CSE-HRP) assay, test compound without co-corrector; assay type: cell-based; conditions: for Emax: maximum at any tested concentration, normalized to positive control, without co-corrector; for EC50: test compound without co-corrector;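 on Emax: percent of on-plate 2 µM positive control corrector response over DMSO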
T1 construct: expressed in transfected cells; host or cells: CFBE41o- human lung-derived epithelial cells (CFBE41o-F508delCFTR-HRP), doxycycline-inducible
T1 sequence (P13569 with tags, fused parts or gaps DEL508-508): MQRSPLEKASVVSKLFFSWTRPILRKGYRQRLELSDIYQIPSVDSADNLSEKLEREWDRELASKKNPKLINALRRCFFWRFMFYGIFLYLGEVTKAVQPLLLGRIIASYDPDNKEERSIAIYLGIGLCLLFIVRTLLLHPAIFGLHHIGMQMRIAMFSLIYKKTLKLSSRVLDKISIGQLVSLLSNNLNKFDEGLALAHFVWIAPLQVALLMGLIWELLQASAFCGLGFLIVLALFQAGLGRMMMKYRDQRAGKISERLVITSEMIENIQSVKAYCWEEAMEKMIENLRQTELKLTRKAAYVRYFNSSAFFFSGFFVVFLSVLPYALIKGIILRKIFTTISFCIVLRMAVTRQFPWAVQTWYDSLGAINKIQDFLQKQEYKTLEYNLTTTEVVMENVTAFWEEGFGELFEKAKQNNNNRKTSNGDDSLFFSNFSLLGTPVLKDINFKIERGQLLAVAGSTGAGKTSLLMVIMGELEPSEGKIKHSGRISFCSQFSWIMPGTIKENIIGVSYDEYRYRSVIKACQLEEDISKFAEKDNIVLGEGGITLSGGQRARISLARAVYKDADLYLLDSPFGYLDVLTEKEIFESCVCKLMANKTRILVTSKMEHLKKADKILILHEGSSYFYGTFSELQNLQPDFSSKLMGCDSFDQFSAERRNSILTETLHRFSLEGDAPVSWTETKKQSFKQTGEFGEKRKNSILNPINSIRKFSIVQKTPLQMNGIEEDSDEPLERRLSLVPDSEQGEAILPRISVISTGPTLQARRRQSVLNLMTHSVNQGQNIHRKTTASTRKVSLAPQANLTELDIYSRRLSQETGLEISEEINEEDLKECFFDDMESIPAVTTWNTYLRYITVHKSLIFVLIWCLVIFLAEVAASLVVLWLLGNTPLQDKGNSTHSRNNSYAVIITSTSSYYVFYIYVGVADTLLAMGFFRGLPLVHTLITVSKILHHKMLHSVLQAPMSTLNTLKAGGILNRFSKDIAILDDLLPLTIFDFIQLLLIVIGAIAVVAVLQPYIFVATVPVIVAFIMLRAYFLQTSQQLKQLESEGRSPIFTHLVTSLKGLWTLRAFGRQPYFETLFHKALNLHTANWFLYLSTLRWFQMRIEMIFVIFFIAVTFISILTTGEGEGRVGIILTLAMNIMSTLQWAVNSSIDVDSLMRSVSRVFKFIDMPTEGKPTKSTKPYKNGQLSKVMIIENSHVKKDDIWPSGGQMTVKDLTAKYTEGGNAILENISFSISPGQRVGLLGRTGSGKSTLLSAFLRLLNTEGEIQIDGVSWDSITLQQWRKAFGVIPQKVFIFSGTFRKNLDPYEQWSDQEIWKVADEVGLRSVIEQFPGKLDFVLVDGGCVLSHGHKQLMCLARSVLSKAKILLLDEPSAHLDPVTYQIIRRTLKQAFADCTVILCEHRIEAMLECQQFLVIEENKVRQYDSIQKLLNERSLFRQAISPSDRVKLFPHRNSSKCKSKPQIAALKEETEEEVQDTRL
Protocol: (§1) Cell Surface Expression-Horse Radish Peroxidase (CSE-HRP) Assay
(§2) A cellular assay for measuring the F508delCFTR cell surface expression after correction with test compounds either without or with a co-corrector (2 μM of 3-[(2R,4R)-4-({[1-(2,2-difluoro-1,3-benzodioxol-5-yl)cyclopropyl]carbonyl}amino)-7-methoxy-3,4-dihydro-2H-chromen-2-yl]benzoic acid), was developed in human lung derived epithelial cell line (CFBE41o-) (Veit G et al, (2012) Mol Biol Cell. 23(21): 4188-4202). The development was achieved by expressing the F508delCFTR mutation along with a horseradish peroxidase (HRP) in the fourth exofacial loop, and then measuring the HRP activity using luminescence readout from these cells, CFBE41o-F508delCFTR-HRP, that were incubated overnight with the test corrector compounds, either without or with the co-corrector. For this primary assay, the CFBE41o-F508delCFTR-HRP cells were plated in 384-well plates (Greiner Bio-one; Cat 781080) at 4,000 cells/well along with 0.5 μg/mL doxycycline to induce the F508delCFTR-HRP expression and further incubated at 37° C., 5% CO2 for 72 hours. The test compounds were then added either without or with a co-corrector at the required concentrations and further incubated for 18-24 hours at 33° C. The highest concentration tested was 20 μM with an 8-point concentration response curve using a 3-fold dilution in both the test compound without or with the co-corrector. Three replicate plates were run to determine one EC50. All plates contained negative controls (dimethyl sulfoxide, DMSO) and positive control (2 μM of 3-[(2R,4R)-4-({[1-(2,2-difluoro-1,3-benzodioxol-5-yl)cyclopropyl]carbonyl}amino)-7-methoxy-3,4-dihydro-2H-chromen-2-yl]benzoic acid) as well as on-plate concentration response of the positive control. Post incubation, the plates were washed 5× times with Dulbecco's phosphate buffered saline (DPBS), followed by the addition of the HRP substrate, luminol (50 μL), and measuring the HRP activity using luminescence readout on EnVision® Multilabel Plate Reader (Perkin Elmer; product number 2104-0010). The raw counts from the experiment were analyzed using Accelrys® Assay Explorer v3.3.
(§3) Z′ greater than 0.5 was used as passing quality control criteria for the plates.
(§4) 1−[3*SDPositive Control+3*SDNegative Control/Absolute (MeanPositive Control−MeanNegative Control)]
(§5) wherein “SD” is standard deviation.
(§6) The % activity measured at each of the 8 test concentrations of the test compound added either without or with a co-corrector (2 μM of 3-[(2R,4R)-4-({[1-(2,2-difluoro-1,3-benzodioxol-5-yl)cyclopropyl]carbonyl}amino)-7-methoxy-3,4-dihydro-2H-chromen-2-yl]benzoic acid) was normalized to the on-plate positive control using the following formulae:
% activity (Test compound without co-corrector)=[(test compound without co-corrector response−DMSO response)/(positive control response−DMSO response)]*100%
(§7) The maximum % activity achieved for the test compound either without or with a co-corrector at any tested concentration is presented in Table 1 along with the respective EC50's calculated using the following general sigmoidal curve with variable Hill slope equation (described as Model 42 in the Accelrys® Assay Explorer v3.3 software):
(§8) General sigmoidal curve with concentration, response, top, bottom, EC50 and Hill slope. This model describes a sigmoidal curve with an adjustable baseline, a. The equation can be used to fit curves where response is either increasing or decreasing with respect to the independent variable, “x”.
“x” is a concentration of drug under test. “y” is the response. “a” is the maximum response, and “d” is the minimum response “c” is the inflection point (EC50) for the curve. That is, “y” is halfway between the lower and upper asymptotes when x=c. “b” is the slope-factor or Hill coefficient. The sign of b is positive when the response increases with increasing dose and is negative when the response decreases with increasing dose (inhibition). The data is presented with the qualifiers shown below: […]

F508delCFTR [2] = target: T1, F508delCFTR; assay: Cell Surface Expression-Horse Radish Peroxidase (CSE-HRP) assay, test compound with co-corrector; assay type: cell-based; conditions: with 2 μM co-corrector; for Maximum % activity (with co-corrector): maximum at any tested concentration, normalized to positive control;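 on Maximum % activity (with co-corrector): percent of 2 µM positive control corrector over DMSO; co-corrector is that same compound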
Protocol: as §1, §2, §3, §4, §5, §6
activity (Test compound with co-corrector)=[(test compound with co-corrector response−DMSO response)/(positive control response−DMSO response)]*100
as §7, §8
“x” is a concentration of drug under test. “y” is the response. “a” is the maximum response, and “d” is the minimum response “c” is the inflection point (EC50) for the curve. That is, “y” is halfway between the lower and upper asymptotes when x=c. “b” is the slope-factor or Hill coefficient. The sign of b is positive when the response increases with increasing dose and is negative when the response decreases with increasing dose (inhibition).

SMILES | Emax (F508delCFTR [1]) | EC50 (F508delCFTR [1]) | Maximum % activity (with co-corrector) (F508delCFTR [2]) | EC50 (F508delCFTR [2])
CCC1(C(=O)NS(=O)(=O)c2cccc3cccc(O)c23)CCc2c(Cl)cccc21 (stereo not shown) [Example I-31, 4-chloro-1-ethyl-N-(8-hydroxynaphthalene-1-sulfonyl)-2,3-dihydro-1H-indene-1-carboxamide] | 50 to 150% | < 3 µM | +++ (≥350) | < 3 µM
CCOc1ccc(Br)c2c1CCCC2C(=O)NS(=O)(=O)c1cccc2ccccc12 (stereo not shown) [Example I-32, 8-bromo-5-ethoxy-N-(naphthalene-1-sulfonyl)-1,2,3,4-tetrahydronaphthalene-1-carboxamide] | ≥ 150% | < 3 µM | +++ (≥350) | < 3 µM
COc1ccc(C2CCC2)c2c1CCCC2C(=O)NS(=O)(=O)c1cccc2ccccc12 (stereo not shown) [Example I-33, 8-cyclobutyl-5-methoxy-N-(naphthalene-1-sulfonyl)-1,2,3,4-tetrahydronaphthalene-1-carboxamide] | ≥ 150% | < 3 µM | +++ (≥350) | < 3 µM
CCC1(C(=O)NS(=O)(=O)c2cccc3ccccc23)CCCc2cccc(Cl)c21 (stereo not shown) [Example I-34, 8-chloro-1-ethyl-N-(naphthalene-1-sulfonyl)-1,2,3,4-tetrahydronaphthalene-1-carboxamide] | ≥ 150% | < 3 µM | +++ (≥350) | < 3 µM
O=C(NS(=O)(=O)c1cccc2ccccc12)C1(Cc2cccc(C(F)(F)F)n2)CCc2c(Cl)cccc21 (stereo not shown) [Example I-35, 4-chloro-N-(naphthalene-1-sulfonyl)-1-{[6-(trifluoromethyl)pyridin-2-yl]methyl}-2,3-dihydro-1H-indene-1-carboxamide] | ≥ 150% | < 3 µM | +++ (≥350) | < 3 µM
O=C(NS(=O)(=O)c1cccc2ccccc12)C1(Cc2ccc(Cl)nc2)CCc2c(Cl)cccc21 (stereo not shown) [Example I-36, 4-chloro-1-[(6-chloropyridin-3-yl)methyl]-N-(naphthalene-1-sulfonyl)-2,3-dihydro-1H-indene-1-carboxamide] | 50 to 150% | 3 to 10 µM | +++ (≥350) | < 3 µM
COc1cccc(CC2(C(=O)NS(=O)(=O)c3cccc4ccccc34)CCc3c(Cl)cccc32)n1 (stereo not shown) [Example I-37, 4-chloro-1-[(6-methoxypyridin-2-yl)methyl]-N-(naphthalene-1-sulfonyl)-2,3-dihydro-1H-indene-1-carboxamide] | 50 to 150% | 3 to 10 µM | +++ (≥350) | 3 to 10 µM
CC1(C(=O)NS(=O)(=O)c2cccc3ccccc23)CCc2c(Cl)cccc21 (stereo not shown) [Example I-38, 4-chloro-1-methyl-N-(naphthalene-1-sulfonyl)-2,3-dihydro-1H-indene-1-carboxamide] | ≥ 150% | 3 to 10 µM | +++ (≥350) | < 3 µM
CCC1(C(=O)NS(=O)(=O)c2cccc3c(Cl)cccc23)CCc2c(Cl)cccc21 (stereo not shown) [Example I-39, 4-chloro-N-(5-chloronaphthalene-1-sulfonyl)-1-ethyl-2,3-dihydro-1H-indene-1-carboxamide] | 50 to 150% | < 3 µM | +++ (≥350) | < 3 µM
CC(C)Oc1ccc(Br)c2c1CCCC2C(=O)NS(=O)(=O)c1cccc2ccccc12 (stereo not shown) [Example I-40, 8-bromo-N-(naphthalene-1-sulfonyl)-5-[(propan-2-yl)oxy]-1,2,3,4-tetrahydronaphthalene-1-carboxamide] | ≥ 150% | < 3 µM | +++ (≥350) | < 3 µM
COc1ccc(Br)c2c1C(C(=O)NS(=O)(=O)c1cccc3ccccc13)CCC2 (stereo not shown) [Example I-41, 5-bromo-8-methoxy-N-(naphthalene-1-sulfonyl)-1,2,3,4-tetrahydronaphthalene-1-carboxamide] | ≥ 150% | < 3 µM | +++ (≥350) | < 3 µM
CCC1(C(=O)NS(=O)(=O)c2cccc3ncccc23)CCc2c(Cl)cccc21 (stereo not shown) [Example I-42, 4-chloro-1-ethyl-N-(quinoline-5-sulfonyl)-2,3-dihydro-1H-indene-1-carboxamide] | ≥ 150% | < 3 µM | +++ (≥350) | < 3 µM
CCC1(C(=O)NS(=O)(=O)c2cccc3sccc23)CCc2c(Cl)cccc21 (stereo not shown) [Example I-43, N-(1-benzothiophene-4-sulfonyl)-4-chloro-1-ethyl-2,3-dihydro-1H-indene-1-carboxamide] | 50 to 150% | < 3 µM | +++ (≥350) | < 3 µM
COc1ccc(Br)c2c1C(C(=O)NS(=O)(=O)c1cccc3ncccc13)CC2 (stereo not shown) [Example I-44, 4-bromo-7-methoxy-N-(quinoline-5-sulfonyl)-2,3-dihydro-1H-indene-1-carboxamide] | ≥ 150% | < 3 µM | +++ (≥350) | < 3 µM
COCCOc1ccc(Br)c2c1CCCC2C(=O)NS(=O)(=O)c1cccc2ccccc12 (stereo not shown) [Example I-45, 8-bromo-5-(2-methoxyethoxy)-N-(naphthalene-1-sulfonyl)-1,2,3,4-tetrahydronaphthalene-1-carboxamide] | ≥ 150% | < 3 µM | +++ (≥350) | < 3 µM
COc1ccc(Br)c2c1[C@@H](C(=O)NS(=O)(=O)c1cccc3ncccc13)CC2 [Example I-46, (1S)-4-bromo-7-methoxy-N-(quinoline-5-sulfonyl)-2,3-dihydro-1H-indene-1-carboxamide] | ≥ 150% | 3 to 10 µM | +++ (≥350) | < 3 µM
COc1ccc(Br)c2c1[C@H](C(=O)NS(=O)(=O)c1cccc3ncccc13)CC2 [Example I-47, (1R)-4-bromo-7-methoxy-N-(quinoline-5-sulfonyl)-2,3-dihydro-1H-indene-1-carboxamide] | ≥ 150% | < 3 µM | +++ (≥350) | < 3 µM
COc1ccc(Br)c2c1CCC[C@@H]2C(=O)NS(=O)(=O)c1cccc2ccccc12 [Example I-48, (1S)-8-bromo-5-methoxy-N-(naphthalene-1-sulfonyl)-1,2,3,4-tetrahydronaphthalene-1-carboxamide] | ≥ 150% | 3 to 10 µM | +++ (≥350) | < 3 µM
COc1ccc(Br)c2c1CCC[C@H]2C(=O)NS(=O)(=O)c1cccc2ccccc12 [Example I-49, (1R)-8-bromo-5-methoxy-N-(naphthalene-1-sulfonyl)-1,2,3,4-tetrahydronaphthalene-1-carboxamide] | ≥ 150% | < 3 µM | +++ (≥350) | < 3 µM
